These results are taken from patent US20160090556A1, “PRODUCTS COMPRISING MALODOR REDUCTION MATERIALS” (The Procter & Gamble Company, priority 2014, published 2016).

One data set is described as follows: Liquid dish neat product liquid-air partition coefficient. Type of data set: physicochemical.
Conditions: not given
As to `CC1=CC[C@@H]2[C@@]3(C)CCCC(C)(C)[C@@H]3CC[C@@]2(C)O1` [Material 1029], the “Log of liquid dish neat product liquid-air partition coefficient (Comment Code K/L)” value (“Log … (Comment Code K/L)” below) was “K (Log of liquid dish neat product liquid-air partition coefficient greater than or equal to −7)”.

For `C=C1CCCC(C)(C)C1C=C(C)C(C)=O` (stereo not shown) [Material 913], the “Log … (Comment Code K/L)” value was “K (Log of liquid dish neat product liquid-air partition coefficient greater than or equal to −7)”.

As for `C=CCCC(=O)C1=CCCC(C)(C)C1` [Material 697], the “Log … (Comment Code K/L)” value is listed as “K (Log of liquid dish neat product liquid-air partition coefficient greater than or equal to −7)”.

Consider `C[C@@H]1CC[C@H]2C(C)(C)[C@H]3C[C@@]12CC1OC(C)(C)OC13C` (stereo partly shown) [Material 674], for which the “Log … (Comment Code K/L)” value is recorded as “K (Log of liquid dish neat product liquid-air partition coefficient greater than or equal to −7)”.

For `OCCc1ccccc1` [Material 955], the “Log … (Comment Code K/L)” value is given as “K (Log of liquid dish neat product liquid-air partition coefficient greater than or equal to −7)”.

Turning to `CC/C=C\C/C=C/CCO` [Material 1072], the “Log … (Comment Code K/L)” value is “K (Log of liquid dish neat product liquid-air partition coefficient greater than or equal to −7)”.

Staying with this data set, now noted: class code letter within Comment Code.
Consider `O=C1CCC=CCCCCCCCCCC1` [Material 372], for which the “Log … (Comment Code K/L)” value is “K (Log of liquid dish neat product liquid-air partition coefficient greater than or equal to −7)”.

Consider `CC1C(C)(C)C2=C(C3OC(C)(C)OC3CC2)C1(C)C` (stereo not shown) [Material 23], for which the “Log … (Comment Code K/L)” value is “K (Log of liquid dish neat product liquid-air partition coefficient greater than or equal to −7)”.

For the compound `OC1CCC2CCCCC2C1` (stereo not shown) [Material 474], the “Log … (Comment Code K/L)” value is recorded as “K (Log of liquid dish neat product liquid-air partition coefficient greater than or equal to −7)”.

Take `CCCCCCCCCC/C=C\C#N` [Material 11]: the “Log … (Comment Code K/L)” value is listed as “K (Log of liquid dish neat product liquid-air partition coefficient greater than or equal to −7)”.

`C=CCCC(=O)/C=C/C1C(C)=CCCC1(C)C` (stereo not shown) [Material 559]: the “Log … (Comment Code K/L)” value was “K (Log of liquid dish neat product liquid-air partition coefficient greater than or equal to −7)”.

Regarding `CC(=O)OCCC1=CCC2CC1C2(C)C` (stereo not shown) [Material 47], the “Log … (Comment Code K/L)” value was “K (Log of liquid dish neat product liquid-air partition coefficient greater than or equal to −7)”.

The same data set, now with this note: code letters K, L.
Take `CC1=CC[C@@H]2[C@@]3(C)CCCC(C)(C)[C@@H]3CC[C@@]2(C)O1` [Material 1029]: the “Comment Code: Log of liquid dish neat product liquid-air partition coefficient” value (from here on “Comment Code: Log”) was “K (Log of liquid dish neat product liquid-air partition coefficient greater than or equal to −7)”.

Consider `CC1C(C)(C)C2=C(C3OC(C)(C)OC3CC2)C1(C)C` (stereo not shown) [Material 23], for which the “Comment Code: Log” value is given as “K (Log of liquid dish neat product liquid-air partition coefficient greater than or equal to −7)”.

With `CCOCCOCCO` [Material 579], the “Comment Code: Log” value is recorded as “K (Log of liquid dish neat product liquid-air partition coefficient greater than or equal to −7)”.

Regarding `CC(C)C(=O)OCCc1ccccc1` [Material 958], the “Comment Code: Log” value is on record as “K (Log of liquid dish neat product liquid-air partition coefficient greater than or equal to −7)”.

As to `COc1ccc(C(C)=O)cc1` [Material 761], the “Comment Code: Log” value is listed as “K (Log of liquid dish neat product liquid-air partition coefficient greater than or equal to −7)”.

`C[C@@H]1CC[C@H]2C(C)(C)[C@H]3C[C@@]12CC1OC(C)(C)OC13C` (stereo partly shown) [Material 674]: the “Comment Code: Log” value is “K (Log of liquid dish neat product liquid-air partition coefficient greater than or equal to −7)”.

For `CCOC1CCC(C(C)(C)CC)CC1` (stereo not shown) [Material 12], the “Comment Code: Log” value was “K (Log of liquid dish neat product liquid-air partition coefficient greater than or equal to −7)”.
